Source: patent publication US11802108B2, “Compounds for the modulation of cyclophilins function” (The University Court of The University of Edinburgh, priority 2018, dated 2023)
Counter-ions that a name gives are not always drawn.

Assays:
CypA [1] = molecular target: T1, CypA (Homo sapiens (Human), UniProt P62937); experiment: Isothermal titration calorimetry (ITC) binding to CypA; conditions: 25° C.
Method: All ITC experiments for the ester series compounds were carried out at 25° C. on a MicroCal Auto iTC200 (GE Healthcare) instrument. The buffer used in the titrations of the compounds belonging to the ester series was 50 mM phosphate buffer, pH 6.5 and the concentration of DMSO was 2% v/v for all the compounds, unless otherwise stated in Table 51. Final compound solutions were heated to 65° C. and/or sonicated prior to the experiment. Each experiment consisted of an initial injection of 0.4 μL followed by nineteen 2 μL injections and in most of cases for these compounds, the “continue injections” protocol was used leaving the cell intact and performing a second series of titrations using the above protocol to achieve saturation. Control experiments were performed, where each compound was titrated into buffer and when small amount of heat was detected due to heat of dilution, it was subtracted when processing the data using a linear fit method. In all cases the first injection was omitted from the data processing. All data were analysed using the MicroCal PEAQ-ITC Analysis software.
The buffer used for these titrations was: PBS, 0.05% v/v P20 surfactant, 50 μM EDTA in presence of 2% v/v EtOH and the pH was set to 7.4.

NK92 cells = experiment: Proliferation of NK92 cells; type: cell-based
Method: (§1) The latter medium with 2000 U/mL IL-2 was used for NK92 cell killing assays.
(§2) NK92 cells were then added at a density of 1000 cells per well and 10 μM test compound was added. Cells were imaged with a 10× objective every 3 hours for 120 hours using an IncuCyte ZOOM microscope from Essen Bioscience.
(§3) Apoptotic fraction of the population (number of nuclei with co-localized red and green fluorescence divided by total number of red nuclei in the population) and fold increase in number of red nuclei were determined at various time points.

MDA-MB-231 cells [2] = experiment: Growth inhibition (GI50) of MDA-MB-231 cells, IncuCyte imaging; type: cell-based; conditions: MDA-MB-231, 120 hours imaging
Method: as §1
(§4) To determine the direct effect of the compounds on cell proliferation, cells were seeded at a density of 500 cells per well in cell culture medium in 384-well cell culture plates and allowed to adhere overnight (about 16 hours), incubated in a humidified atmosphere with 5% CO2. Subsequently, cell culture medium was refreshed, supplemented with Draq 7 (3 μM final concentration) and test compound at the indicated concentrations with three wells being treated for each condition tested. Cells were then returned to the cell culture incubator and imaged with a 10× objective every 3 hours for 120 hours using an IncuCyte ZOOM microscope from Essen Bioscience.
(§5) Using the IncuCyte ZOOM software, custom image analysis procedures were developed and applied for each cell line to determine cell confluency, cell number and number of dead cells over the time course of the experiment.
(§6) Statistical analyses in cell viability assays to compare the effect of compound treatment to treatment with vehicle were performed using GraphPad Prism 6 (2-way ANOVA with Bonferroni correction post hoc).

CypB = CypB (Homo sapiens (Human), UniProt P23284); experiment: Surface plasmon resonance (SPR) binding to His-CypB; conditions: 25° C., triplicate
Method: (§7) Single cycle kinetic titration binding experiments were performed using SPR in triplicate at 25° C. […] The sensor surface was regenerated between experiments by dissociating any formed complex in running buffer for at least 1,200 seconds.
(§8) Kinetic titration binding experiments were performed in triplicate at 25° C. […] The sensor surface was regenerated between experiments by dissociating any formed complex in running buffer for at least a further 600 seconds.

CypA [3] = molecular target: T1, CypA; experiment: X-ray co-crystal structure with CypA; as to CypA X-ray co-crystal: key: Y: observed in cocrystal; N: not observed in cocrystal; type: binding; conditions: for CypA X-ray co-crystal: apo CypA crystals soaked with 5 mM ligand; for binding mode in co-crystal structure of CypA: FIG. 1
Method: Purified and his-tag-cleaved CypA was buffer-exchanged into PBS and concentrated to ˜29 mg ml^−1. For crystallisation 1 μL of protein was mixed with an equal volume of the well solution, consisting of 100 mM Tris-HCl pH8.0 and 20-22% v/v PEG 8000, and crystal formation came about after equilibration overnight in 6° C. by vapour diffusion using the hanging drop method over 1 mL of the same well solution. Apo CypA crystals were soaked overnight into different ligand solution consisting of 100 mM Tris-HCl pH 8.0, 35% w/v PEG 8000, 5% v/v Glycerol, 5% v/v DMSO and 5 mM ligand, before flash frozen into liquid nitrogen. X-ray data were collected at the Diamond synchrotron-radiation facility in Oxford-shire, England at 100K. Structures were solved by molecular replacement using DIMPLE from the CCP4i suite. Modelled structures were visualised and manually adjusted as needed using Coot10 and further refined using REFMAC5 from CCP4i.
FIG. 1A summarises the mode of binding of certain prior-art urea small molecule Cyp inhibitors.

CypA [4] = molecular target: T1, CypA; experiment: Surface plasmon resonance (SPR) binding to His-CypA; conditions: 25° C., triplicate
Method: (§9) SPR measurements were performed on a BIAcore T200 instrument (GE Healthcare). Ni^2+-nitrilotriacetic acid (NTA) sensor chips, 1-ethyl-3-(3-[…]) carbodiimide hydrochloride (EDC) and Nhydroxysuccinimide (NHS) were purchased from GE Healthcare.
(§10) Pure His-cyclophilins were immobilized and covalently stabilized on the NTA sensor chip according to the protocol described in Thermo-kinetic analysis space expansion for cyclophilin-ligand interactions—identification of a new nonpeptide inhibitor using Biacore T200.
as §7, §8

MDA-MB-231 cells [5] = experiment: Cytotoxicity (cell death, Draq7) in MDA-MB-231 cells; type: cell-based
Method: as §1, §4, §5, §6

IMR-90 cells = experiment: Cytotoxicity (cell death, Draq7) in IMR-90 cells; type: cell-based
Method: as §1, §4, §5, §6

CypD = CypD (Homo sapiens (Human), UniProt P30405); experiment: Surface plasmon resonance (SPR) binding to His-CypD; conditions: 25° C., triplicate
Method: as §9, §10, §7, §8

[6] = system: MDA-MB-231 cells in presence of NK92 cells; experiment: NK92 immune cell killing of MDA-MB-231 cancer cells; type: cell-based; conditions: with NK92 cells
Method: as §1, §2, §3

T1 sequence (P62937 whole entry): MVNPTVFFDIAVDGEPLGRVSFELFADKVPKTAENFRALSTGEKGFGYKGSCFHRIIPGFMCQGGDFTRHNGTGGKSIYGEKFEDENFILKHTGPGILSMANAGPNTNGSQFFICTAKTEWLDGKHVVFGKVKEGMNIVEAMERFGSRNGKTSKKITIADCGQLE
Sequence of CypB (P23284 34-216): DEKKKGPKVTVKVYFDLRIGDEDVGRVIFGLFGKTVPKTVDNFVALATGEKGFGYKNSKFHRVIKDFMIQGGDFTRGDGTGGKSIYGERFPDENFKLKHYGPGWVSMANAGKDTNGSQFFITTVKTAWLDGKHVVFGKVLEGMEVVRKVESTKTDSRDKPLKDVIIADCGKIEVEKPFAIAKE
Sequence of CypD (P30405 30-207): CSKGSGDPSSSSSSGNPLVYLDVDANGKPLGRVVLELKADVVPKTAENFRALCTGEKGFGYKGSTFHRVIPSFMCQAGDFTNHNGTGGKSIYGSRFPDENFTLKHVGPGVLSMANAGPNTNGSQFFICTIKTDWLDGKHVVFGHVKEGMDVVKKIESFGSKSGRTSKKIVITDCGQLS

SMILES | Kd (CypA [1]) [µM] | CypA X-ray co-crystal (CypA [3]) | further results
C#CCN(Cc1ccc(N)cc1)C(=O)NCC(=O)N1CCCC1c1ccccc1Br.Cl (stereo not shown) [Compound 1, 1-[(4-aminophenyl)methyl]-3-{2-[2-(2-bromophenyl)pyrrolidin-1-yl]-2-oxoethyl}-1-(prop-2-yn-1-yl)urea hydrochloride] | 2 ± 1 | Y | Fold increase in NK92 cells after 72 h @ 10 μM (NK92 cells): 4.3 ± 0.7; GI50 (MDA-MB-231 cells [2]; Homo sapiens): 5.1 ± 0.9 µM; Kd (CypB): 1.4 ± 0.4 µM; Kd (CypA [4]): 3.2 ± 1.3 µM; Toxicity MDA-MB-231 @10 μM (MDA-MB-231 cells [5]): N; Toxicity IMR-90 @10 μM (IMR-90 cells): N; Kd (CypD): 0.2 ± 0.1 µM; Apoptotic fraction of the MDA-MB-231 population in the presence of NK92 cells after 72 h @ 10 μM [6]: 0.64 ± 0.03; Fold increase MDA-MB-231 cells in presence of NK92 cells after 72 h @ 10 μM [6]: 2.0 ± 0.3
CCN(Cc1ccc(N)cc1)C(=O)NCC(=O)N1CCCC1c1ccccc1 (stereo not shown) [Compound 9, 1-[(4-aminophenyl)methyl]-3-{2-[2-(phenyl)pyrrolidin-1-yl]-2-oxoethyl}-1-ethylurea] | 35 ± 5 | Y | 
Cl.Nc1ccc(CN(CC2CC2)C(=O)NCC(=O)N2CCCC2c2ccccc2Br)cc1 (stereo not shown) [Compound 11, 1-[(4-aminophenyl)methyl]-3-{2-[2-(2-bromophenyl)pyrrolidin-1-yl]-2-oxoethyl}-1-(cyclopropylmethyl)urea] | ~10 | Y | 
CCOC(=O)CCn1cc(CN(Cc2ccc(N)cc2)C(=O)NCC(=O)N2CCCC2c2ccccc2Br)nn1.Cl (stereo not shown) [Compound 6, Ethyl 3-[4-({[(4-aminophenyl)methyl]({2-[2-(2-bromophenyl)pyrrolidin-1-yl]-2-oxoethyl}carbamoyl)amino}methyl)-1H-1,2,3-triazol-1-yl]propanoatehydrochloride] | 0.3 ± 0.08 | N | 
CCOC(=O)[C@H](CCSC)NC(=O)N(CC)Cc1ccc(N)cc1 [Compound 15, Ethyl (2S)-2-({[(4-aminophenyl)methyl](ethyl)carbamoyl}amino)-4-(methylsulfanyl)butanoate hydrochloride] | 35 ± 5 | Y | 
CCN(Cc1ccc(N)cc1)C(=O)NCC(=O)N1CCCC1c1ccccc1Br.Cl (stereo not shown) [Compound 10, 1-[(4-aminophenyl)methyl]-3-{2-[2-(2-bromophenyl)pyrrolidin-1-yl]-2-oxoethyl}-1-ethylurea hydrochloride] | ~25 | N | 
CCOC(=O)CNC(=O)N(CC)Cc1ccc2c(c1)[C@H]1CC(N2)[C@H](O)CO1 (stereo in doubt) [Compound 23, Ethyl 2-{[ethyl({[(1R,9S,10S)-10-hydroxy-12-oxa-8-azatricyclo[7.3.1.0^2,7]trideca-2,4,6-trien-4-yl]methyl})carbamoyl]amino}acetate hydrochloride] | 700 ± 235 | N | 
C/C=C/CC(C)C(O)C1C(=O)NC(CC)C(=O)N(C)CC(=O)N(C)C(CC(C)C)C(=O)NC(C(C)C)C(=O)N(C)C(CC(C)C)C(=O)NC(C)C(=O)NC(C)C(=O)N(C)C(CC(C)C)C(=O)N(C)C(CC(C)C)C(=O)N(C)C(C(C)C)C(=O)N1C (stereo not shown) [CsA, Cyclosporin A, reference compound] |  |  | GI50 (MDA-MB-231 cells [2]): 6.2 ± 0.8 µM; Apoptotic fraction of the MDA-MB-231 population in the presence of NK92 cells after 72 h @ 10 μM [6]: 0.38 ± 0.01
CCOC(=O)Cn1cc(CN(Cc2ccc(N)cc2)C(=O)NCC(=O)N2CCCC2c2ccccc2Br)nn1.Cl (stereo not shown) [Compound 5, Ethyl 2-[4-({[(4-aminophenyl)methyl]({2-[2-(2-bromophenyl)pyrrolidin-1-yl]-2-oxoethyl}carbamoyl)amino}methyl)-1H-1,2,3-triazol-1-yl]acetate hydrochloride] | ~3 | N | Kd (CypB): 1.9 ± 0.9 µM; Kd (CypA [4]): 4.3 ± 1 µM; Kd (CypD): 1 ± 0.4 µM

Further lines, with some results ahead:

Kd (CypA [1]) [µM] | CypA X-ray co-crystal (CypA [3]) | SMILES | further results
184 ± 13 | Y | CCOC(=O)CNC(=O)N(Cc1ccc(N)cc1)Cc1nnn(C)n1.Cl [Compound 19, Ethyl 2-({[(4-aminophenyl)methyl][(2-methyl-2H-1,2,3,4-tetrazol-5-yl)methyl]carbamoyl}amino)acetate hydrochloride] | binding mode in co-crystal structure of CypA (CypA [3]): type-II binding mode
1.1 ± 0.4 | N | Cl.Cn1cc(CN(Cc2ccc(N)cc2)C(=O)NCC(=O)N2CCCC2c2ccccc2Cl)nn1 (stereo not shown) [Compound 8, 1-[(4-aminophenyl)methyl]-3-{2-[2-(2-chlorophenyl)pyrrolidin-1-yl]-2-oxoethyl}-1-[(1-methyl-1H-1,2,3-triazol-4-yl)methyl]urea hydrochloride] | 
> 1000 | Y | C#CCN(Cc1ccc(N)cc1)C(=O)NCC(=O)OCC [Compound 22, Ethyl 2-({[(4-aminophenyl)methyl](prop-2-yn-1-yl)carbamoyl}amino)acetate] | 
990 ± 20 | Y | CCOC(=O)CNC(=O)N(CC#N)Cc1ccc(N)cc1.Cl [Compound 13, Ethyl 2-({[(4-aminophenyl)methyl](cyanomethyl)carbamoyl}amino)acetate hydrochloride] | 
 | Y | CCOC(=O)CNC(=O)N(Cc1ccc(N)cc1)CC1CC1.Cl [Compound 17, Ethyl 2-({[(4-aminophenyl)methyl](cyclopropylmethyl)carbamoyl}amino)acetate hydrochloride] | 
135 ± 6 | Y | CCOC(=O)CNC(=O)N(Cc1ccc(N)cc1)Cc1cn(C)nn1.Cl [Compound 18, Ethyl 2-({[(4-aminophenyl)methyl][(1-methyl-1H-1,2,3-triazol-4-yl)methyl]carbamoyl}amino)acetate hydrochloride] | 
200 ± 5 | Y | CCOC(=O)CNC(=O)N(CC)Cc1ccc(N)cc1.Cl [Compound 12, Ethyl 2-({[(4-aminophenyl)methyl](ethyl)carbamoyl}amino)acetate hydrochloride] | binding mode in co-crystal structure of CypA (CypA [3]): type-I binding mode
139 ± 4 | N | CCOC(=O)CNC(=O)N(Cc1ccc(N)cc1)Cc1nnn[nH]1.Cl [Compound 14, Ethyl 2-({[(4-aminophenyl)methyl][(1H-1,2,3,4-tetrazol-5-yl)methyl]carbamoyl}amino)acetate hydrochloride] | 
266 ± 3 | Y | CCCN(Cc1ccc(N)cc1)C(=O)NCC(=O)OCC [Compound 16, Ethyl 2-({[(4-aminophenyl)methyl](propyl)carbamoyl}amino)acetate] | 
